Measurements from patent US20140121373A1, “PROCESS FOR PREPARING STABLE POLYMORPHIC FORM OF ERLOTINIB HYDROCHLORIDE” (CADILA HEALTHCARE LIMITED, priority 2011, published 2014).

Assay: Polymorphic stability study of the stable form of Erlotinib hydrochloride (PXRD, DSC, IR on storage)
Type: physicochemical
Settings: for DSC / IR / PXRD: should comply with data of stable polymorphic form
Procedure: (Refrigerator), 25° C.±2° C./60%±5% RH, 30° C.±2° C./65%±5% RH (Real Time) and 40° C.±2° C./75%±5% RH of the stable form of Erlotinib Hydrochloride.
• Powder X-ray Diffraction: X-ray powder diffraction spectrum was observed on a MF 2100 2 KW X-ray Powder diffractometer of make Rigaku having a Copper Kα-radiation at a voltage of 40 kV and 30 mA. Approximately 150 mg sample was gently flattened on a quartz plate without further processing (e.g. Grinding and sieving) and scanned from 4° to 40° at 0.010° sampling width and 4.000° per minute. • IR Spectroscopy: The IR spectra was performed on 8400S of make Shimadzu by using KBr pellet and recorded from 4000 to 400 cm^−1. About 2 mg of sample was triturated with 300 mg of finely powdered and dried potassium bromide. The mixture was carefully grinded, spread uniformly in a suitable die and submitted it in vacuum to a pressure of about 800 MPa […]. From the FTIR spectrum a blank FT-IR spectrum of KBr was subtracted. The blank IR spectrum was recorded prior to the measurement of the samples.
Differential Scanning Calorimetry (DSC): Melting points are determined by means of a DSC thermogram using a Pyris-1 make Perkin Elmer. DSC (Differential Scanning Calorimetry) is the technique of dynamic differential Calorimetry. Using this technique, the melting temperature can be measured by heating the sample until a thermal, i.e. an endothermic or exothermic, reaction is detected by means of ultrasensitive sensors. The DSC cell/sample chamber was purged with 100 ml/min of ultra-high purity nitrogen. The instrument was calibrated with high purity Indium. The sample was placed into an open aluminum DSC pan and measured against an empty reference pan. About 2 mg of sample being placed into the bottom of the pan and lightly tapped down to ensure good contact with the pan. The instrument was programmed to heat at a heating rate of 10° C./min in the temperature range between 50° C. and 300° C. • Microscope: A Lieca Microscope with Linkam Hot stage microscopy (TMS-94) system with polarized light, CCD camera and Linksys 32 data software. • HPLC: High Performance Liquid Chromatography Separation Module with PDA detector, Make Waters, Model No 2695. • KF: Moisture content was analyzed by using Karl Fisher Autotitrator 795 KFT Titrino make Metrohm.

[1] = 5° C. ± 3° C. (Refrigerator), Month 1
[2] = 5° C. ± 3° C. (Refrigerator), Month 2
[3] = 5° C. ± 3° C. (Refrigerator), Month 3
[4] = 5° C. ± 3° C. (Refrigerator), Month 6
[5] = 25° C. ± 2° C./60% ±5% RH, Month 1
[6] = 25° C. ± 2° C./60% ±5% RH, Month 2
[7] = 25° C. ± 2° C./60% ±5% RH, Month 3
[8] = 25° C. ± 2° C./60% ±5% RH, Month 6
[9] = 30° C. ± 2° C./65% ±5% RH (Real Time), Month 1
[10] = 30° C. ± 2° C./65% ±5% RH (Real Time), Month 2
[11] = 30° C. ± 2° C./65% ±5% RH (Real Time), Month 3
[12] = 30° C. ± 2° C./65% ±5% RH (Real Time), Month 6
[13] = 40° C. ± 2° C./75% ±5% RH, Month 1
[14] = 40° C. ± 2° C./75% ±5% RH, Month 2
[15] = 40° C. ± 2° C./75% ±5% RH, Month 3
[16] = 40° C. ± 2° C./75% ±5% RH, Month 6

DSC [1]: Complies
IR [1]: Complies
PXRD [1]: Complies
DSC [2]: Complies
IR [2]: Complies
PXRD [2]: Complies
DSC [3]: Complies
IR [3]: Complies
PXRD [3]: Complies
DSC [4]: Complies
IR [4]: Complies
PXRD [4]: Complies
DSC [5]: Complies
IR [5]: Complies
PXRD [5]: Complies
DSC [6]: Complies
IR [6]: Complies
PXRD [6]: Complies
DSC [7]: Complies
IR [7]: Complies
PXRD [7]: Complies
DSC [8]: Complies
IR [8]: Complies
PXRD [8]: Complies
DSC [9]: Complies
IR [9]: Complies
PXRD [9]: Complies
DSC [10]: Complies
IR [10]: Complies
PXRD [10]: Complies
DSC [11]: Complies
IR [11]: Complies
PXRD [11]: Complies
DSC [12]: Complies
IR [12]: Complies
PXRD [12]: Complies
DSC [13]: Complies
IR [13]: Complies
PXRD [13]: Complies
DSC [14]: Complies
IR [14]: Complies
PXRD [14]: Complies
DSC [15]: Complies
IR [15]: Complies
PXRD [15]: Complies
DSC [16]: Complies
IR [16]: Complies
PXRD [16]: Complies
SMILES: C#Cc1cccc(Nc2ncnc3cc(OCCOC)c(OCCOC)cc23)c1.Cl [Erlotinib hydrochloride, 4-(3-Ethynylphenylamino)-6,7-bis(2-methoxyethoxy)-quinazoline]
retention of polymorphic and chemical identity on storage (both stability studies, all storage conditions): retained the same polymorphic and chemical identity at least up to six months
